Literature values as cited in patent publication US20070148240A1, “Oral formulation containing itraconazole and methods for manufacturing and using the same” (priority 2005, published 2007).

Assays:
[1] = not given; remark: listed apart in the source
[2] = test system: plasma proteins
[3] = test system: fungi

| Molecule | time to reach peak concentration in plasma (after being taken by patients) | concentration in blood relative to that in plasma (human, in vivo) | itraconazole in original form excreted in feces (human, in vivo) | itraconazole in original form secreted in urine (human, in vivo) | plasma half life (human, in vivo) | itraconazole metabolites secreted in urine (within a week after uptake of the drug) | solubility in acids ([1]; in acids such as hydrochloric acid, acetic acid, phosphoric acid and methylsulfonic acid) | solubility in ethanol ([1]; in ethanol) | solubility in methylene chloride ([1]; in methylene chloride) | solubility in water ([1]; in water) | binding rate with plasma proteins [2] | antifungal activity in vitro [3] |
| --- | --- | --- | --- | --- | --- | --- | --- | --- | --- | --- | --- | --- |
| CCC(C)n1ncn(-c2ccc(N3CCN(c4ccc(OC[C@H]5CO[C@](Cn6cncn6)(c6ccc(Cl)cc6Cl)O5)cc4)CC3)cc2)c1=O (mixture of isomers) [itraconazole, (±)-cis-4-[4-[4-[4-[[2-(2,4-dichlorophenyl)-2-(1H-1,2,4-triazol-1-ylmethyl)-1,3-dioxolan-4-yl]methoxy]phenyl]-1-piperazinyl]phenyl]-2,4-dihydro-2-(1-methylpropyl)-3H-1,2,4-triazol-3-one] | 3 to 4 h | about 60% | 3-18% | ≤ 0.03% | 24 to 36 h | About 35% | easily soluble | low | easily soluble | less than 1 μg/ml | 99.8% |  |
| hydroxy-itraconazole |  |  |  |  |  |  |  |  |  |  |  | has been demonstrated in vitro to have antifungal activity |
